Three compounds from US20230135524A1, “ARYL HYDANTOIN HETEROCYCLES AND METHODS OF USE” (The United States of America,as represented by the …, priority 2020, published 2023) can be followed below.

Common to all, as to format: cell-based
In one assay the test system is LNCAP AR. The experiment in a line: IncuCyte % confluence cell growth inhibition, LNCAP AR. Particulars: read-out: IC50 values (μM), LNCAP AR. On the procedure:
(§1) Images were then analyzed to discern the % confluence of cells in each well. IC50 values were calculated from dose response curves of the % cell growth inhibition relative to DMSO control at the same time point per each cell line.

Another assay relates to LNCaP. The experiment in a line: IncuCyte % confluence cell growth inhibition, LNCaP. The note with it: Homo sapiens, read-out: IC50 values (μM), LNCaP. On the procedure: as §1
A further assay has as its system LAPC4. The experiment in a line: IncuCyte % confluence cell growth inhibition, LAPC4. Particulars: Homo sapiens, LAPC4, read-out: IC50 values (μM), LAPC4. On the procedure: as §1
A further assay concerns LNCaP ARin vivo. The experiment in a line: IncuCyte % confluence cell growth inhibition, LNCaP ARin vivo. The note with it: Homo sapiens, read-out: IC50 values (μM), LNCaP ARin vivo. On the procedure: as §1
The next assay relates to PC3. Nature of the assay: IncuCyte % confluence cell growth inhibition, PC3. Particulars: Homo sapiens, PC-3, read-out: IC50 values (μM), PC3. The method, then:
as §1

Another assay has as its system 22Rv1. Nature of the assay: IncuCyte % confluence cell growth inhibition, 22Rv1. The note with it: Homo sapiens, 22Rv1, read-out: IC50 values (μM), 22Rv1. On the procedure: as §1
The subject of the next assay is LNCaP ARF876L. Nature of the assay: IncuCyte % confluence cell growth inhibition, LNCaP ARF876L. Particulars: Homo sapiens, AR-positive, AR mutation F876L, % cell growth inhibition relative to DMSO. On the procedure:
as §1

For another assay, the system named is DU145. The experiment in a line: IncuCyte % confluence cell growth inhibition, DU145. The note with it: Homo sapiens, DU-145, read-out: IC50 values (μM), DU145. On the procedure:
as §1

The next assay addresses T1, AR (Homo sapiens, UniProt P10275).
T1 construct: host or cells: HEK 293T
T1 sequence (P10275 1-920): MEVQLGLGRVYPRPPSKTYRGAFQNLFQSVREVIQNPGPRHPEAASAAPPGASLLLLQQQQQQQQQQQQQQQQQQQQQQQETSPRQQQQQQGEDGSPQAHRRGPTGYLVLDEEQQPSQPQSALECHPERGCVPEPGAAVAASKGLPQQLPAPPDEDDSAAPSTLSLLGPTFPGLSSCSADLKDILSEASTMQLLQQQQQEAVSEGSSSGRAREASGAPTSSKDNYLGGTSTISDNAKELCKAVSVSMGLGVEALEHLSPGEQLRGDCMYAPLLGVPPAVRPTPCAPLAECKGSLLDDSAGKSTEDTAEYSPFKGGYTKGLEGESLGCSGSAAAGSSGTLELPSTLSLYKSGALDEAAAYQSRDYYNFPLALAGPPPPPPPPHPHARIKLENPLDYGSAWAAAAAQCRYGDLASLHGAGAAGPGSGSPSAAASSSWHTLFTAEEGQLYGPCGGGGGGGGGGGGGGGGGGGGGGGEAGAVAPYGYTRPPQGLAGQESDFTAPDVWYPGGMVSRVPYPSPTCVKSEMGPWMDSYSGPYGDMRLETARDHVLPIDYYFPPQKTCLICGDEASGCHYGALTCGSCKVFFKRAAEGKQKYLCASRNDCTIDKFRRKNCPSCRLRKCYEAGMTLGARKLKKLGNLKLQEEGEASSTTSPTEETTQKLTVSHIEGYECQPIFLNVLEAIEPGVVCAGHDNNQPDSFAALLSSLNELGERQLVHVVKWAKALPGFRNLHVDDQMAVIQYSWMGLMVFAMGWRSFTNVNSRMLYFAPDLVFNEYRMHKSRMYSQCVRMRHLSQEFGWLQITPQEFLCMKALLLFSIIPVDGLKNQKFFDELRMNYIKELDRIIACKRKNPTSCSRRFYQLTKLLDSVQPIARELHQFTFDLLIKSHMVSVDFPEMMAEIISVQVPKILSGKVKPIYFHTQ
Nature of the assay: AR transcriptional output, ARE-luciferase assay in HEK 293T cells. The note with it: for antagonist or inverse agonist activity on AR transcriptional activity (in words): 10 μM, HEK 293T, FIG. 6A; for activity at 10 µM: HEK-293T, read-out: AR antagonist activity (% RLU). On the procedure:
100% is set to the activity with 200 μM testosterone, and 0% is set to the basal level (no ligand).
Cells were maintained in steroid free media, and stimulated with 200 μM testosterone, followed immediately by administration of exemplary compounds (Table 1, below). RLU is relative luciferase units, relative to DMSO control with 200 μM testosterone alone. Data represent an average of 3 independent experiments performed in triplicate wells per compounds at 10 μM.
Cells were maintained in steroid-free media, and stimulated with 200 μM testosterone, followed immediately by administration of a test compound. […] Compounds were dosed at 10 μM in FIGS. 6A and 6B.
Cells were maintained in steroid-free media, and stimulated with 200 μM testosterone, followed immediately by administration of a test compound.

With `CC1(C)C(=O)N(c2ccc(C#N)c(C(F)(F)F)c2)C(=O)N1Cc1ccc(-c2c[nH]nn2)cc1` [Compound 14a, 4-(3-(4-(1H-1,2,3-triazol-4-yl)benzyl)-4,4-dimethyl-2,5-dioxoimidazolidin-1-yl)-2-(trifluoromethyl)benzonitrile], the IC50 (commonly the concentration needed to halve the response being measured) was 32.5 µM in the assay with LNCAP AR; 44.8 µM with LNCaP; 70 µM with LAPC4; 65.4 µM with LNCaP ARin vivo; 68.5 µM in the assay with PC3; 46.5 µM in the assay with 22Rv1. Further, the IC50 in the assay with LNCaP ARF876L was 35.9 µM; in the assay on DU145, 84.1 µM. Further, the “antagonist or inverse agonist activity on AR transcriptional activity (in words)” value at AR was “reduced the transcriptional activity of the AR well below the expression in the absence of any steroids or ligands”. In addition, the activity at 10 µM at AR is -64%.
In the case of `CC1(C)C(=O)N(c2ccc(C#N)c(C(F)(F)F)c2)C(=S)N1c1ccc(-c2c[nH]nn2)cc1` [Compound 16a, 4-(3-(4-(1H-1,2,3-triazol-4-yl)phenyl)-4,4-dimethyl-5-oxo-2-thioxoimidazolidin-1-yl)-2-(trifluoromethyl)benzonitrile], the IC50 in the assay on LNCAP AR stood at 21.2 µM; in the assay with LNCaP, 17.1 µM; in the assay on LAPC4 it was 17.3 µM; in the assay on LNCaP ARin vivo it was 33.6 µM; with PC3, 49.2 µM; in the assay with 22Rv1 it was 20.7 µM. The IC50 in the assay on LNCaP ARF876L came out at 30.2 µM; with DU145, 39.9 µM. The “antagonist or inverse agonist activity on AR transcriptional activity (in words)” value on AR is “reduced the transcriptional activity of the AR well below the expression in the absence of any steroids or ligands”. The activity at 10 µM at AR is -22%.
As to `CC1(C)C(=O)N(c2ccc(C#N)c(C(F)(F)F)c2)C(=S)N1Cc1ccc(-c2c[nH]nn2)c(F)c1` [Compound 19c, 4-(3-(3-Fluoro-4-(1H-1,2,3-triazol-4-yl)benzyl)-4,4-dimethyl-5-oxo-2-thioxoimidazolidin-1-yl)-2-(trifluoromethyl)benzonitrile], the IC50 was 28 µM in the assay with LNCAP AR; 36.2 µM with LNCaP; 17.9 µM with LAPC4; 34 µM in the assay with LNCaP ARin vivo; 59.9 µM in the assay on PC3; 25.3 µM with 22Rv1. Besides, the results for the half-maximal inhibitory concentration (IC50) in the assay on LNCaP ARF876L and in the assay on DU145 were 33.9 µM and 114 µM, respectively.
